Target: S. pneumoniae Topoisomerase IV ATPase (ParE) (Streptococcus pneumoniae serotype 4, UniProt Q59961)
Assay: S. pneumoniae Topoisomerase IV ATPase inhibition
Type: biochemical
Details: values marked * are an average of two or more data points, read-out: % Inh (13 μM) of S. pneumoniae Topoisomerase IV ATPase
Outline: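 S. pneumoniae ParE (1.25 nM) ATPase with 160 μM ATP and 5 μg/ml sheared DNA in pH 8.0 Tris, Mg2+, DTT, Brij-35; phosphate detected by malachite green/molybdate at 650 nm. Normalised to 2% DMSO (0%) and 20 μM EDTA (100%); IC50 from 10 concentrations.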

Chain of S. pneumoniae Topoisomerase IV ATPase (ParE) (Q59961 whole entry): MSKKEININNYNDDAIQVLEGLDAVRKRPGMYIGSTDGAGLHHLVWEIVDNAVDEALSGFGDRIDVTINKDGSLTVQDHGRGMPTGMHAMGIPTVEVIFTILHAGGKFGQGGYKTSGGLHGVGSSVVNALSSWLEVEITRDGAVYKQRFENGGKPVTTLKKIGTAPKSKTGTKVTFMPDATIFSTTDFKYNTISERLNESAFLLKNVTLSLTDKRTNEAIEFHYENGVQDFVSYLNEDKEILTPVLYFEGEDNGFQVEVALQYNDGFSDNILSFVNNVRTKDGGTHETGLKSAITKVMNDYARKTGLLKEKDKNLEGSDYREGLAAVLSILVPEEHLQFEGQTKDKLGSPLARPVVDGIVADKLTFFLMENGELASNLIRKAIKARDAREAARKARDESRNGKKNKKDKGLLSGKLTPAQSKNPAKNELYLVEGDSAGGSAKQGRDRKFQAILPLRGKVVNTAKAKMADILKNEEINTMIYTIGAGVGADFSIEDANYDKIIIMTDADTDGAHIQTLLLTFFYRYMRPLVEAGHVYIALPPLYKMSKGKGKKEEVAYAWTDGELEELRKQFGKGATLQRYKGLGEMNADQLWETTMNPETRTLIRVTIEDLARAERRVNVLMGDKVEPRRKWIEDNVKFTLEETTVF

Row | Compound | inhibition at 13 µM
1 | CCOC(=O)c1cncc(-c2cnc(Nc3ccc(F)c(Cl)c3)nc2NCc2cnn(C)c2)c1 [Example 148, ethyl 5-(2-(3-chloro-4-fluorophenylamino)-4-((1-methyl-1H-pyrazol-4-yl)methylamino)pyrimidin-5-yl)-nicotinate] | 120%
2 | CCOC(=O)c1cncc(-c2cnc(Nc3ccc(F)c(Cl)c3)nc2NC(COC)COC)c1 [Example 149, ethyl 5-(2-(3-chloro-4-fluorphenylamino)-4-(1,3-dimethoxypropan-2-ylamino)pyrimidin-5-yl)nicotinate] | 82.2%
3 | CCOC(=O)c1cncc(-c2cnc(Nc3ccc(F)c(Cl)c3)nc2N2CCN(CCOC)CC2)c1 [Example 150, ethyl 5-(2-(3-chloro-4-fluorophenylamino)-4-(4-(2-methoxyethyl)piperazin-1-yl)pyrimidin-5-yl)nicotinate] | 53.3%
4 | CCOC(=O)c1cncc(-c2cnc(Nc3ccc(F)c(Cl)c3)nc2N2CCN(C)CC2)c1 [Example 151, ethyl 5-(2-(3-chloro-4-fluorophenylamino)-4-(4-methylpiperazin-1-yl)pyrimidin-5-yl)nicotinate] | 50.1%
5 | CCOC(=O)c1cncc(-c2cnc(Nc3ccc(F)c(Cl)c3)nc2N2CCCCC2)c1 [Example 152, ethyl 5-(2-(3-chloro-4-fluorophenylamino)-4-(piperidin-1-yl)pyrimidin-5-yl)nicotinate] | 0.54%
6 | CCOC(=O)/C=C/c1cccc(-c2cnc(Nc3ccc(F)c(Cl)c3)nc2-n2cnc(Cl)c2Cl)c1 [Example 161, ethyl (2E)-3-(3-{2-[(3-chloro-4-fluorophenyl)amino]-4-(4,5-dichloro-1H-imidazol-1-yl)pyrimidin-5-yl}phenyl)prop-2-enoate] | 74.8%
7 | CCOC(=O)/C=C/c1cccc(-c2cnc(Nc3ccc(F)c(Cl)c3)nc2N2CC(C)OC(C)C2)c1 (stereo not drawn) [Example 163, (E)-ethyl 3-(3-(2-(3-chloro-4-fluorophenylamino)-4-(2,6-dimethylmorpholino)pyrimidin-5-yl)phenyl)acrylate] | 55%
8 | CCOC(=O)/C=C/c1cccc(-c2cnc(Nc3ccc(F)c(Cl)c3)nc2N2CCN(C(=O)N(C)C)CC2)c1 [Example 164, (E)-ethyl 3-(3-(2-(3-chloro-4-fluorophenylamino)-4-(4-(dimethylcarbamoyl)piperazin-1-yl)pyrimidin-5-yl)phenyl)acrylate] | 47%
9 | CCOC(=O)/C=C/c1cccc(-c2cnc(Nc3ccc(F)c(Cl)c3)nc2NCCCNC(=O)c2cnc(C)cn2)c1 [Example 165] | 56.9%
10 | CCOC(=O)/C=C/c1cccc(-c2cnc(Nc3ccc(F)c(Cl)c3)nc2N2CCOCC2)c1 [Example 166, (E)-ethyl 3-(3-(2-(3-chloro-4-fluorophenylamino)-4-morpholinopyrimidin-5-yl)phenyl)acrylate] | 37.4%
11 | CCOC(=O)/C=C/c1cccc(-c2cnc(Nc3ccc(F)c(Cl)c3)nc2NCCCOC)c1 [Example 167, (E)-ethyl 3-(3-(2-(3-chloro-4-fluorophenylamino)-4-(3-methoxypropylamino)pyrimidin-5-yl)phenyl)acrylate] | 31.1%
12 | CCOC(=O)/C=C/c1cccc(-c2cnc(Nc3ccc(F)c(Cl)c3)nc2NCc2cnn(C)c2)c1 [Example 168, (E)-ethyl 3-(3-(2-(3-chloro-4-fluorophenylamino)-4-((1-methyl-1H-pyrazol-4-yl)methylamino)pyrimidin-5-yl)phenyl)acrylate] | 66.4%
13 | CCOC(=O)/C=C/c1cccc(-c2cnc(Nc3ccc(F)c(Cl)c3)nc2N[C@@H]2CCOC2)c1 [Example 169, (R,E)-ethyl 3-(3-(2-(3-chloro-4-fluorophenylamino)-4-(tetrahydrofuran-3-ylamino)pyrimidin-5-yl)phenyl)acrylate] | 34.2%
14 | CCOC(=O)/C=C/c1cccc(-c2cnc(Nc3ccc(F)c(Cl)c3)nc2N2CCN(C)CC2)c1 [Example 170, (E)-ethyl 3-(3-(2-(3-chloro-4-fluorophenylamino)-4-(4-methylpiperazin-1-yl)pyrimidin-5-yl)phenyl)acrylate] | 46%
15 | CCOC(=O)/C=C/c1cccc(-c2cnc(Nc3ccc(F)c(Cl)c3)nc2N2CCCCC2)c1 [Example 171, (E)-ethyl 3-(3-(2-(3-chloro-4-fluorophenylamino)-4-(piperidin-1-yl)pyrimidin-5-yl)phenyl)acrylate] | 3.62%
16 | CCOC(=O)/C=C/c1cccc(-c2cnc(Nc3ccc(F)c(Cl)c3)nc2NCc2cncn2C)c1 [Example 172, (E)-ethyl 3-(3-(2-(3-chloro-4-fluorophenylamino)-4-((1-methyl-1H-imidazol-5-yl)methylamino)pyrimidin-5-yl)phenyl)acrylate] | -32.8%
17 | CCOC(=O)/C=C/c1cccc(-c2cnc(Nc3ccc(F)c(Cl)c3)nc2NC(COC)COC)c1 [Example 173, (E)-ethyl 3-(3-(2-(3-chloro-4-fluorophenylamino)-4-(1,3-dimethoxypropan-2-ylamino)pyrimidin-5-yl)phenyl)acrylate] | 34.7%

Row | Compound | inhibition at 13 µM
18 | CCOC(=O)/C=C/c1cccc(-c2cnc(Nc3ccc(F)c(Cl)c3)nc2N2CCN(S(C)(=O)=O)CC2)c1 [Example 174, (E)-ethyl 3-(3-(2-(3-chloro-4-fluorophenylamino)-4-(4-(methylsulfonyl)piper-azin-1-yl)pyrimidin-5-yl)phenyl)acrylate] | 52.1%
19 | CCOC(=O)c1cn(CCOC)c2ccc(-c3cnc(Nc4ccc(F)c(Cl)c4)nc3N3CCOCC3)cc2c1=O [Example 175, ethyl 6-(2-(3-chloro-4-fluorophenylamino)-4-morpholinopyrimidin-5-yl)-1-(2-methoxyethyl)-4-oxo-1,4-dihydroquinoline-3-carboxylate] | 80%
20 | CCOC(=O)c1cn(CCOC)c2ccc(-c3cnc(Nc4ccc(F)c(Cl)c4)nc3NCCCOC)cc2c1=O [Example 177, ethyl 6-(2-(3-chloro-4-fluorophenylamino)-4-(3-methoxypropylamino)-pyrimidin-5-yl)-1-(2-methoxyethyl)-4-oxo-1,4-dihydroquinoline-3-carboxylate] | 68.9%
21 | COCCCNc1nc(Nc2ccc(F)c(Cl)c2)ncc1-c1ccc(C(=O)O)s1 [Example 178, 5-(2-(3-chloro-4-fluorophenylamino)-4-(3-methoxypropylamino)-pyrimidin-5-yl)thiophene-2-carboxylic acid] | 83%
22 | COCCCNc1nc(Nc2ccc(F)c(Cl)c2)ncc1-c1ccc(C(C)=O)s1 [Example 179, 1-(5-(2-(3-chloro-4-fluorophenylamino)-4-(3-methoxypropylamino)-pyrimidin-5-yl)thiophen-2-yl)ethanone] | 93.9%
23 | COCCCNc1nc(Nc2ccc(F)c(Cl)c2)ncc1-c1ccc2sc(C(=O)OC)cc2c1 [Example 180, methyl 5-(2-(3-chloro-4-fluorophenylamino)-4-(3-methoxypropylamino)-pyrimidin-5-yl)benzo[b]thiopene-2-carboxylate] | -56.9%
24 | COCCCNc1nc(Nc2ccc(F)c(Cl)c2)ncc1-c1nc(C(=O)OC)cs1 [Example 212, Methyl 2-(2-(3-chloro-4-fluorophenylamino)-4-(3-methoxypropylamino)pyrimidin-5-yl)thiazole-4-carboxylate] | 14.5%
25 | Fc1ccc(Nc2ncc(-c3cncnc3)c(N3CCCCCC3)n2)cc1Cl [Example 213, 4-(azepan-1-yl)-N-(3-chloro-4-fluorophenyl)-5-pyrimidin-5-ylpyrimidin-2-amine] | 55.8%
26 | CN(C)CCCNc1nc(Nc2ccc(F)c(Cl)c2)ncc1-c1cncc(C(=O)O)c1 [Example 214, 5-(2-(3-chloro-4-fluorophenylamino)-4-(3-(dimethylamino)propylamino)pyrimidin-5-yl)nicotinic acid] | 101%
27 | CN(C)CCCNc1nc(Nc2ccc(F)c(Cl)c2)ncc1-c1ccc(C(=O)O)cc1 [Example 216, 4-(2-[(3-chloro-4-fluorophenyl)amino]-4-{[3-(dimethylamino)propyl]amino}pyrimidin-5-yl)benzoic acid] | 96.3%
28 | CN(C)CCCNc1nc(Nc2ccc(F)c(Cl)c2)ncc1-c1ccc2sc(C(=O)O)cc2c1 [Example 217, 5-(2-(3-chloro-4-fluorophenylamino)-4-(3-(dimethylamino)propylamino)pyrimidin-5-yl)benzo[b] thiophene-2-carboxylic acid] | 82.4%
29 | CCCNc1nc(Nc2ccc(F)c(Cl)c2)ncc1-c1cncc(C(=O)O)c1 [Example 218, 5-[2-(3-Chloro-4-fluoro-phenylamino)-4-propylamino-pyrimidin-5-yl]-nicotinic acid] | 80.9%
30 | O=C(O)c1cncc(-c2cnc(Nc3ccc(F)c(Cl)c3)nc2NCCCN2CCCC2=O)c1 [Example 219, 5-{2-(3-Chloro-4-fluoro-phenylamino)-4-[3-(2-oxo-pyrrolidin-1-yl)-propylamino]-pyrimidin-5-yl}-nicotinic acid] | 79%
31 | CN(C)CCNc1nc(Nc2ccc(F)c(Cl)c2)ncc1-c1cncc(C(=O)O)c1 [Example 220, 5-[2-(3-Chloro-4-fluoro-phenylamino)-4-(2-dimethylamino-ethylamino)-pyrimidin-5-yl]-nicotinic acid] | 79%
32 | CC(=O)NCCNc1nc(Nc2ccc(F)c(Cl)c2)ncc1-c1cncc(C(=O)O)c1 [Example 221, 5-[4-(2-Acetylamino-ethylamino)-2-(3-chloro-4-fluoro-phenylamino)-pyrimidin-5-yl]-nicotinic acid] | 81%
33 | O=C(O)c1cncc(-c2cnc(Nc3ccc(F)c(Cl)c3)nc2NCc2ccccn2)c1 [Example 222, 5-{2-(3-Chloro-4-fluoro-phenylamino)-4-[(pyridin-2-ylmethyl)-amino]-pyrimidin-5-yl]-nicotinic acid] | 76.2%

From US20100137313A1 (ASTRAZENECA AB, priority 2008, published 2010)
